Columns and labels:
[1] = test system: LM2 cells; experiment: Drug uptake and retention analysis of radiolabeled paclitaxel and doxorubicin; settings: for effect of MTDH on drug uptake or retention: cancer cells with modified MTDH expression (LM2 knockdown, SCP28 overexpression); for kinetics of uptake and retention: parent LM2 cells, pilot study, 50 nM [H3]-paclitaxel or 100 nM [C14]-doxorubicin
[2] = test system: LM2 cells; experiment: Chemoresistance clonogenic assay; format: cell-based, human; settings: for chemoresistance on ALDH3A1 overexpression in MTDH knockdown cells: constitutive ALDH3A1 overexpression in MTDH knockdown LM2 cells; for sensitivity of LM2 cells on ALDH3A1 knockdown: inducible ALDH3A1 shRNA induced by doxycycline
Description: The infected cells were selected with 0.5 μg/ml puromycin or/and 0.4 mg/ml hygromycin. Double knockdown of MET and ALDH3A1 was achieved by simultaneous infection of MET and ALDH3A1 targeting viruses with different drug selection markers. MTDH, LAPTM4b, PTDSS1, SDC2, TSPYL5, and UQCRB overexpression was achieved using the retroviral expression vector pBabe-hygro. Viruses were generated and used to infect target cells as above and the infected cells were selected with 0.4 mg/ml hygromycin. For combinational overexpression of genes at 8q22, the viruses generated from the expression vector pBabe-puro containing each of the four genes were concentrated by ultracentrifugation and pooled for infection. Northern blots, qRT-PCR, and/or Western blots were performed to validate the knockdown or overexpression of target genes.
To generate an inducible knockdown of ALDH3A1, a retroviral vector expressing the Tet repressor (TetR) was constructed by cloning the TetR coding sequence from the pcDNA6/TR plasmid (Invitrogen) to pQCXIH (Clontech). LM2 cell line with stable expression of TetR was generated by transduction with retroviruses produced from pQCXIH-TetR. The cell line was then infected with retroviruses generated from the pRSMX vector^77 containing the ALDH3A1-targeting shRNA sequence. The expression of a shRNA against ALDH3A1 is under the control of the histone H1 promoter and two adjacent tetracycline operators (TetOs). The bacterial Tet repressor (TetR) is constitutively expressed from the integrated pQCXIH-TetR in this cell line and suppresses the expression of shRNA by binding to TetOs. In the presence of […] doxycycline in the media, TetR is released from the TetOs and allow the transcription of ALDH3A1 shRNA and thus the repression of ALDH3A1 expression. The pBabe-hygro vector was used to overexpress ALDH3A1.
Cancer cells with genetic modification of MTDH and/or ALDH3A1 and the vector control were seeded into a 48-well plate (10^4 cells/well). After 24 h, the cells were treated with apoptosis-inducing chemicals for the indicated time (20, 50 or 100 nM paclitaxel, EMD Biosciences, 24 h; 50, 100 or 200 μM doxorubicin, EMD Biosciences, 24 h; 40 μM cisplatin, EMD Biosciences, 2 h; 200 or 500 μM H2O2, Fisher Scientific, 2 h) or 10 mJ/cm^2 UV irradiation. After culturing in drug-free DMEM medium for another 48 h, the surviving cells were quantified by clonogenic assay with the standard procedure for long-term recovery. Briefly, an aliquot of the harvested cell population was seeded onto a 10 cm dish. Crystal violet staining was used to count the colonies after 10-day culture in DMEM medium. The colony numbers from untreated cells of the same line were used to normalize the experimental data. In the HMVEC-L co-culture assays, HMVEC-L cells were grown to confluence in the 48-well plates with supplemented EGM-2 medium (Lonza) before seeding of cancer cells. Because HMVEC-L cells could not form colonies in the DMEM medium (data not shown), the rest of the assay was performed following the standard procedure.

[3] = test system: LM2 cells; experiment: In vivo chemoresistance assay, subcutaneous LM2 xenograft tumors; parameters: species or system nude mice
Description: MTDH-knockdown or control LM2 cells (1×10^6 cells/0.1 ml in a 50:50 solution of PBS and Matrigel) were injected subcutaneously into each flank of nude mice. The mice were treated with chemotherapeutic drugs (20 mg/kg paclitaxel or 5 mg/kg doxorubicin) or the corresponding drug vehicles (Cremophor for paclitaxel and saline for doxorubicin) twice a week by intravenous delivery a week after the tumor xenografting. Six mice (12 tumors) were used for each group. Tumor growth was monitored twice a week by size measurement. Both maximum (L) and minimum (W) diameters of the tumor were measured using a slide caliper, and the tumor volume was calculated as […]LW^2/6. Tumor growth was normalized to that before drug treatment.

Structure (SMILES) | effect of MTDH on drug uptake or retention [1] | kinetics of uptake and retention [1] | chemoresistance on MET knockdown ([2]; MET knockdown in LM2 cells, weaker than MTDH knockdown) | chemoresistance on ALDH3A1 overexpression in MTDH knockdown cells [2] | sensitivity of LM2 cells on ALDH3A1 knockdown [2] | tumor size relative to pre-treatment size ([3]; MTDH knockdown LM2 cells, 20 mg/kg paclitaxel intravenous twice a week, 18 days after initiation of treatment) | tumor response in MTDH knockdown tumors ([3]; MTDH knockdown LM2 cells, paclitaxel 20 mg/kg or doxorubicin 5 mg/kg twice a week) | tumor volume relative to volume before treatment ([3]; control LM2 cells, 20 mg/kg paclitaxel intravenous twice a week, 18 days after treatment) [%] | effect on tumor growth ([3]; control LM2 cells, versus drug vehicle)
COc1cccc2c1C(=O)c1c(O)c3c(c(O)c1C2=O)C[C@@](O)(C(=O)CO)C[C@@H]3O[C@H]1C[C@H](N)[C@H](O)[C@H](C)O1 [doxorubicin] | does not decrease drug uptake or retention | biphasic kinetics | significant reduction of chemoresistance | partially restore | more sensitive |  |  |  | 
CC(=O)O[C@H]1C(=O)[C@@]2(C)[C@H]([C@H](OC(=O)c3ccccc3)[C@]3(O)C[C@H](OC(=O)[C@H](O)[C@@H](NC(=O)c4ccccc4)c4ccccc4)C(C)=C1C3(C)C)[C@]1(OC(C)=O)CO[C@@H]1C[C@@H]2O [paclitaxel] | does not decrease drug uptake or retention | biphasic kinetics |  | partially restore | more sensitive | about 30% | tumor regression | 140 | significantly hampered tumor growth

— patent US10745701B2, “Methods of identifying and treating poor-prognosis cancers” (The Trustees of Princeton University, priority 2007, dated 2020)
